Values after ≈ are worked out from the molar mass of the structure shown. Like-named read-outs stand apart in the source and are kept apart here.
Experiments:
[1] = test system: DNA; assay: Thermal denaturation of DNA (ΔTm), stabilization of DNA helical structure on drug binding; design: species or system calf thymus; conditions: for DNA melting profile / ΔTm character of the DNA complex: thermal denaturation, words
Description: Thermal denaturation studies were carried out according to the procedure described in J. Med. Chem., Vol. 24, p. 1052 (1981). The ΔTm values in Table II give a measure of stabilization of DNA helical structure as a consequence of drug binding.
^a ΔTm = m of DNAdrug complex minus m of DNA.
Concentraiton of drug, 1.4 × 10^-4 M; of DNA (P), 1.4 ×
10^-3 M in 0.01 M phosphate buffer (pH 7.0), 5 × 10^-3 M in
EDTA and 5% dimethyl sulfoxide.
^d Highest dose tested. These values are derived at high temperatur
(67°-75° C.) and may not always correlate with the results
of other DNA-binding studies (e.g., absorptiometric or circular dichroic).
Melting points were obtained with a Thomas-Hoover melting point apparatus at a heating rate of 2° C./min. Column chromatography was accomplished with silica gel powder (Baker No. 3405, 60-20 mesh) or acid alumina (Woelm grade 1). Limited gel-filtration work was done on Sephadex LH-20, particle size 25-100 μm (Pharmacia Fine Chemicals). Thin-layer chromatography was performed on silica gel plates (E. M. Laboratories, Inc.). Solvent systems used were (A) butanol-formic acid-H2 O (75:13:12), (B) EtOAc-acetone (3:1), and (C) Cifferri, the organic phase of the mixture EtOAc-MeOH-H2 O (20:1:20). High-performance liquid chromatography was carried out on a Varian Model 5020 gradient liquid chromatograph equipped with CD-111L chromatography data system and fitted with Varian reversed-phase C18 column with isocratic solvent systems, CH3 -CN-5 mM NH4 OAc buffer, pH 6.4 (68:32 or 62:38), pressure 80-140 atm, flow rate 1.5 mL/min, with UV-visible variable and fixed wavelength dual detectors at 254 and 466 nm. Spectra were determined on the following instruments: IR spectra were obtained with a Perkin-Elmer Model 237 Infra Cord with KBr micropellets or chloroform solutions; UV-visible spectra were obtained on a Gilford 250 spectrophotometer, which, with the addition of a base-line reference compensator (Analog Multiplexer 6064) and thermoprogrammer, auto four cell programmer and thermoelectric cell holder 2577, was used to obtain thermal denaturation curves; NMR spectra were obtained on a JOEL FQ-90-90MHZ spectrometer equipped with Fourier transform; and CD spectra were obtained on a Cary 61 spectrophotometer. All elemental analyses were within ±0.4% of the theoretical values. Actinomycin D, batch no. NCS 3053, lot L554651-0-10, was provided by Natural Products Branch, National Cancer Institute, Silver Spring, Md. Calf thymus DNA type 1 was purchased from Sigma Chemical Co.

[2] = test system: human lymphoblastic leukemic cells (CCRF-CEM); assay: In vitro growth-inhibitory activity against human lymphoblastic leukemic cells (CCRF-CEM) in log phase; assay type: cell-based; conditions: for IC50: Homo sapiens, final growth medium contained 1% Me2SO, log phase, read-out: ID50 (in vitro growth inhibition, CCRF-CEM)
Description: ^b Using human lymohoblastic leukemia cells in logplastic growth.
Compounds were dissolved in Me2 So medium, final growth medium

[3] = test system: P-388 leukemia; assay: In vivo antitumor activity against P-388 lymphocytic leukemia in CDF1 mice; conditions: for % ILS (percent increase in life span) / MST (median survival time) / cure (over 55 day survivors): days 1, 5, 9; for minimal effective dose: Mus musculus, P388, ip, read-out: MED (minimum effective dose, 40% increase in life span over control); for fold increase in survival time over AMD (1b) or 7-hydroxyactinomycin D (2b): optimal nontoxic dose levels
Description: Studies on in vivo activity of AMD and AMD analogues were carried out with P-388 lymphocytic leukemia in CDF1 hybrid mice. The drugs were administered either daily for 4 successive days (qd 1-4) or on days 1, 5 and 9 (q4d 1, 5, 9) beginning 1 day after tumor implantation.
^a Male CDF1 (18-23 g) mice were inoculated intraperitoneally
(ip) with 10^6 P388 cells on day 0. Drugs were administered, also ip,
in 10% dimethyl sulfoxidesaline on days 1, 5 and 9. Test solutions were
kept at 0-4° C., protected from light, and the stability and
homogeneity were checked periodically by TLC and HPLC.
^b MST = median survival time.
^c % ILS = percent increase in life span.
^d Over 55 day survivors. Average of three experiments. The
^a Drugs administed ip once daily either for 4 successive days (qd
1-4) or on days 1, 5 and 9 (q4d 1, 5 9), starting 1 day after tumor
^b MED (minimum effective dose) is the dose (milligrams/kilogram)
providing an increase in life span of 40% over control in P388

[4] = test system: normal CDF1 male mice; assay: Maximum tolerated dose (LD10) in normal, tumor-free CDF1 male mice; assay type: in vivo; conditions: for MTD (maximum tolerated dose, lethal for 10% of normal mice; = LD10): deaths during 21 days; for MTD dose as multiple of the MTD dose for AMD: q4d 1, 5, 9 schedule; for fold less toxic than AMD: qd 1-4 schedule
Description: ^c MTD (maximum tolerated dose) is the lethal dose
(milligrams/kilogram) for 10% normal CDF1 male mice (18-23 g);
were calculated from a plot of log dose vs. percent mortality. Average of
two to three experiments.
Biological Experiments. Determination of LD10 Values. Tumor-free CDF1 male mice weighing 18-23 g were given a broad range of doses of drugs in 10% dimethyl sulfoxide-saline on either days 1, 5 and 9 or on 4 successive days. Drugs were administered intraperitoneally (ip).
The maximum tolerated doses of AMD and analogues that caused deaths in only 10% of the tested animals in 21 days were recorded as MTD. The results are an average of two experiments in each. The MTD values obtained following schedules q4d 1, 5, 9 (three injections) and qd 1-4 (four injections) are recorded in Table IV. These doses are the same as LD10 (lethal dose of 10% of tumor-free animals in 21 days).

[5] = In vivo metabolic transformation and urinary excretion; design: species or system rat; conditions: metabolites as conjugates of 4b
Description: The therapeutic indexes of both 3b and 4b in qd 1-4 and q4d 1, 5, 9 schedules of treatment are calculated and expressed in Table IV. […] These and other unidentified polar metabolites are excreted at about two to three times the rate of AMD in rat urine. This process of in vivo metabolic transformation and fast excretion appears to play a major role in reducing the in vivo toxicity factor of 3b and 4b.

[6] = three injections ip, q4d 1, 5, 9

Compound | DNA melting profile / ΔTm character of the DNA complex [1] | IC50 [2] [µg/mL] | % ILS (percent increase in life span) ([3]; 0.15 mg/kg ip) [%] | MST (median survival time) ([3]; 0.15 mg/kg ip) [days] | cure (over 55 day survivors) ([3]; 0.15 mg/kg ip) | % ILS (percent increase in life span) ([3]; 0.30 mg/kg ip) [%] | MST (median survival time) ([3]; 0.30 mg/kg ip) [days] | cure (over 55 day survivors) ([3]; 0.30 mg/kg ip) | % ILS (percent increase in life span) ([3]; 0.60 mg/kg ip) [%] | MST (median survival time) ([3]; 0.60 mg/kg ip) [days] | cure (over 55 day survivors) ([3]; 0.60 mg/kg ip) | % ILS (percent increase in life span) ([3]; 1.20 mg/kg ip) [%] | MST (median survival time) ([3]; 1.20 mg/kg ip) [days] | cure (over 55 day survivors) ([3]; 1.20 mg/kg ip) | % ILS (percent increase in life span) ([3]; 1.80 mg/kg ip) [%] | MST (median survival time) ([3]; 1.80 mg/kg ip) [days] | cure (over 55 day survivors) ([3]; 1.80 mg/kg ip) | minimal effective dose ([3]; four injections ip, qd 1-4) [mg/kg] | minimal effective dose [3, 6] [mg/kg] | therapeutic index: MTD/MED ([3]; four injections ip, qd 1-4) | other results
Cc1c2oc3c(C)c(OCC4CO4)cc(C(=O)N[C@@H]4C(=O)N[C@H](C(C)C)C(=O)N5CCC[C@H]5C(=O)N(C)CC(=O)N(C)[C@@H](C(C)C)C(=O)O[C@@H]4C)c3nc-2c(C(=O)N[C@@H]2C(=O)N[C@H](C(C)C)C(=O)N3CCC[C@H]3C(=O)N(C)CC(=O)N(C)[C@@H](C(C)C)C(=O)O[C@@H]2C)c(N)c1=O (stereo partly shown) [Compound 3b, 7-(2,3-Epoxypropoxy)actinomycin D] | very broad | 0.009 (≈ 0.00678 µM) | 164 | 29 | 0/7 | 263 | 40 | 1/7 | 255 | 41 | 1/7 | 291 | 43 | 3/7 | 300 | 44 | 3/7 | 0.0375 | 0.05 | 43 | times more cytotoxic than AMD ([2]; vs AMD): about sevenfold; % ILS (percent increase in life span) ([3]; 2.40 mg/kg ip): 136%; MST (median survival time) ([3]; 2.40 mg/kg ip): 26 days; cure (over 55 day survivors) ([3]; 2.40 mg/kg ip): 2/7; breadth of dose-response curve ([3]; ip, q4d 1, 5, 9): very broad; overall activity relative to AMD ([3]; ip, q4d 1, 5, 9): superior to AMD; cure (tumor free), animals out of seven treated ([3]; optimal dose ranges of 1.2 and 1.8 mg/kg, ip, q4d 1, 5, 9): three; fold increase in survival time over AMD (1b) or 7-hydroxyactinomycin D (2b) ([3]; ip, q4d 1, 5, 9): ~2.5 fold; therapeutic index: MTD/MED [3, 6]: 72; long-term survivors ([3]; throughout the dose range, ip, q4d 1, 5, 9): long-term survivors throughout this dose range; MTD (maximum tolerated dose, lethal for 10% of normal mice; = LD10) ([4]; four injections ip, qd 1-4): 1.6 milligrams/kilogram; MTD dose as multiple of the MTD dose for AMD [4]: 14 fold; fold less toxic than AMD [4]: 11 fold; MTD (maximum tolerated dose, lethal for 10% of normal mice; = LD10) [4, 6]: 3.6 milligrams/kilogram; in vivo metabolic transformation [5]: transformed in vivo to highly polar metabolites
Cc1c2oc3c(C)c(OCC(O)CO)cc(C(=O)N[C@@H]4C(=O)N[C@H](C(C)C)C(=O)N5CCC[C@H]5C(=O)N(C)CC(=O)N(C)[C@@H](C(C)C)C(=O)O[C@@H]4C)c3nc-2c(C(=O)N[C@@H]2C(=O)N[C@H](C(C)C)C(=O)N3CCC[C@H]3C(=O)N(C)CC(=O)N(C)[C@@H](C(C)C)C(=O)O[C@@H]2C)c(N)c1=O (stereo partly shown) [Compound 4b, 7-(2,3-Dihydroxypropoxy) actinomycin D] | sharp and smooth | 0.085 (≈ 0.0632 µM) | 45 | 16 | 0/7 | 82 | 20 | 2/7 | 136 | 25 | 1/7 | 191 | 32 | 0/7 | 36 | 15 | 0/7 | 0.125 | 0.15 | 6 | Tm (ΔTm = Tm of DNA-drug complex minus Tm of DNA) ([1]; drug 1.4 × 10^-4 M, DNA (P) 1.4 × 10^-3 M, 0.01 M phosphate buffer pH 7.0, EDTA, 5% dimethyl sulfoxide): 5.1 ± 0.15 °C; times less cytotoxic than AMD ([2]; vs AMD): about 1.5 times; fold increase in survival time over AMD (1b) or 7-hydroxyactinomycin D (2b) ([3]; ip, q4d 1, 5, 9): ~1.5 fold; therapeutic index: MTD/MED [3, 6]: 12; MTD (maximum tolerated dose, lethal for 10% of normal mice; = LD10) ([4]; four injections ip, qd 1-4): 1.4 milligrams/kilogram; MTD dose as multiple of the MTD dose for AMD [4]: 7 fold; fold less toxic than AMD [4]: 9 fold; MTD (maximum tolerated dose, lethal for 10% of normal mice; = LD10) [4, 6]: 1.8 milligrams/kilogram; in vivo metabolic transformation [5]: transformed in vivo to highly polar metabolites

Reference: patent US4514330A, “Carbon-7-substituted atinomycin D analogue” (Trustees of Boston University, priority 1983, dated 1985)
